How the values were obtained:
Format in all cases: in vivo
[1] = system: Echinochloa crus-galli (ECHCG); assay: Post-emergence herbicidal activity, glasshouse pot test; conditions: Echinochloa crus-galli, 312 h, rate 250 g/ha, evaluated after 13 days, glasshouse, read-out: Post-emergence activity ECHCG (100=total damage to plant; 0=no damage to plant)
Description: (§1) Seeds of a variety of test species were sown in standard soil in pots. After cultivation for one day (pre-emergence) or after 8 days cultivation (post-emergence) under controlled conditions in a glasshouse (at 24/16° C., day/night; 14 hours light; 65% humidity), the plants were sprayed with an aqueous spray solution derived from the formulation of the technical active ingredient in acetone/water (50:50) solution containing 0.5% Tween 20 (polyoxyethelyene sorbitan monolaurate, CAS RN 9005-64-5). The test plants were then grown in a glasshouse under controlled conditions in a glasshouse (at 24/16° C., day/night; 14 hours light; 65% humidity) and watered twice daily. After 13 days for pre and post-emergence, the test was evaluated (100=total damage to plant; 0=no damage to plant).
(§2) Lolium perenne (LOLPE), Alopecurus myosuroides (ALOMY), Echinochloa crus-galli (ECHCG), and Avena fatua (AVEFA).

[2] = system: Alopecurus myosuroides (ALOMY); assay: as above; conditions: Alopecurus myosuroides, 312 h, rate 250 g/ha, evaluated after 13 days, glasshouse, read-out: Post-emergence activity ALOMY (100=total damage to plant; 0=no damage to plant)
Description: as §1, §2

[3] = system: Avena fatua (AVEFA); assay: as above; conditions: Avena fatua, 312 h, rate 250 g/ha, evaluated after 13 days, glasshouse, read-out: Post-emergence activity AVEFA (100=total damage to plant; 0=no damage to plant)
Description: as §1, §2

[4] = system: Lolium perenne (LOLPE); assay: as above; conditions: Lolium perenne, 312 h, rate 250 g/ha, evaluated after 13 days, glasshouse, read-out: Post-emergence activity LOLPE (100=total damage to plant; 0=no damage to plant)
Description: as §1, §2

[5] = system: Echinochloa crus-galli (ECHCG); assay: Pre-emergence herbicidal activity, glasshouse pot test; conditions: Echinochloa crus-galli, 312 h; Rate 250 g/ha; pre-emergence spray; evaluated after 13 days; read-out: Pre-emergence activity ECHCG (100=total damage to plant; 0=no damage to plant)
Description: as §1, §2

[6] = system: Alopecurus myosuroides (ALOMY); assay: as above; conditions: Alopecurus myosuroides, 312 h; Rate 250 g/ha; pre-emergence spray; evaluated after 13 days; read-out: Pre-emergence activity ALOMY (100=total damage to plant; 0=no damage to plant)
Description: as §1, §2

[7] = system: Avena fatua (AVEFA); assay: as above; conditions: Avena fatua, 312 h; Rate 250 g/ha; pre-emergence spray; evaluated after 13 days; read-out: Pre-emergence activity AVEFA (100=total damage to plant; 0=no damage to plant)
Description: as §1, §2

[8] = system: Lolium perenne (LOLPE); assay: as above; conditions: Lolium perenne, 312 h; Rate 250 g/ha; pre-emergence spray; evaluated after 13 days; read-out: Pre-emergence activity LOLPE (100=total damage to plant; 0=no damage to plant)
Description: as §1, §2

Compound	pest or weed control at 250 g/ha [1]	pest or weed control at 250 g/ha [2]	pest or weed control at 250 g/ha [3]	pest or weed control at 250 g/ha [4]	pest or weed control at 250 g/ha [5]	pest or weed control at 250 g/ha [6]	pest or weed control at 250 g/ha [7]	pest or weed control at 250 g/ha [8]
CCc1ccc(Oc2ccc(Br)cc2)cc1C1=C(O)C(C)(C)OC(C)(C)C1=O [Example A-8]	100%	100%	0%	100%	100%	60%	10%	100%
CCc1ccc(Oc2ccc(Br)cc2Cl)cc1C1=C(O)C(C)(C)OC(C)(C)C1=O [Example A-9]	100%	90%	100%	80%	100%	60%	30%	80%
CCc1ccc(Oc2ccc(Br)c(Cl)c2)cc1C1=C(O)C(C)(C)OC(C)(C)C1=O [Example A-10]	100%	100%	90%	100%	90%	0%	20%	30%
CCc1ccc(Oc2ccc(Br)c(C)c2)cc1C1=C(O)C(C)(C)OC(C)(C)C1=O [Example A-11]	60%	50%	20%	50%	0%	0%	0%	0%
CCc1ccc(Oc2ccc(Br)cc2C)cc1C1=C(O)C(C)(C)OC(C)(C)C1=O [Example A-12]	70%	20%	0%	50%	0%	0%	0%	0%
CCc1ccc(Oc2ccccc2F)cc1C1=C(O)C(C)(C)OC(C)(C)C1=O [Example A-13]	70%	0%	0%	0%	0%	0%	0%	0%
CCc1ccc(Oc2ccc(F)cc2F)cc1C1=C(O)C(C)(C)OC(C)(C)C1=O [Example A-14]	100%	0%	10%	40%	0%	0%	0%	0%
CCc1ccc(Oc2ccc(Cl)cc2F)cc1C1=C(O)C(C)(C)OC(C)(C)C1=O [Example A-15]	100%	90%	70%	100%	100%	100%	60%	100%
CCc1ccc(Oc2cccc(F)c2F)cc1C1=C(O)C(C)(C)OC(C)(C)C1=O [Example A-16]	80%	0%	0%	20%	100%	0%	0%	0%
CCc1ccc(Oc2ccc(Cl)cc2Cl)cc1C1=C(O)C(C)(C)OC(C)(C)C1=O [Example A-19]	100%	60%	60%	90%	100%	50%	70%	80%
CCc1ccc(Oc2ccc([N+](=O)[O-])cc2F)cc1C1=C(O)C(C)(C)OC(C)(C)C1=O [Example A-20]	80%	0%	70%	50%	100%	40%	20%	0%
CCc1ccc(Oc2ccc(C#N)cc2F)cc1C1=C(O)C(C)(C)OC(C)(C)C1=O [Example A-21]	100%	100%	60%	70%	30%	0%	0%	20%
CCc1ccc(Oc2ccc(F)cc2)cc1C1=C(O)C(C)(C)OC(C)(C)C1=O [Example A-22]	100%	20%	30%	30%	80%	20%	10%	60%
CCc1ccc(Oc2ccc(Cl)cc2Br)cc1C1=C(O)C(C)(C)OC(C)(C)C1=O [Example A-23]	100%	80%	80%	90%	90%	70%	70%	90%
CCc1ccc(Oc2ccc(F)c(Cl)c2)cc1C1=C(O)C(C)(C)OC(C)(C)C1=O [Example A-24]	100%	70%	70%	70%	90%	30%	40%	90%
CCc1ccc(Oc2ccc(Br)cc2F)cc1C1=C(O)CC2(CCOCC2)CC1=O [Example A-25]	100%	90%	100%	90%	90%	70%	80%	80%
CCc1ccc(Oc2ccc(Cl)cc2)cc1C1=C(O)CC(C)(C)CC1=O [Example A-26]	100%	80%	40%	70%	100%	70%	40%	80%
CCc1ccc(Oc2ccc(Cl)cc2)cc1C1=C(O)CCCC1=O [Example A-27]	90%	30%	40%	30%	100%	40%	60%	60%
CCc1ccc(Oc2ccc(F)cc2)cc1C1=C(O)CC(C)(C)CC1=O [Example A-28]	80%	30%	20%	40%	70%	20%	0%	40%
